Assay [1] concerns Glutathione S-transferase (GST). Description: DSF specificity control with GST. In kind it is binding. To be noted: same concentrations as measured for FicD. An excerpt:
To ensure specificity of binding to the FicD enzyme, we performed DSF with Glutathione S-transferase (GST) and BiP in the presence of the same increasing metabolite concentrations. […] Like FicD, BiP is an ATP/Mg^2+ dependent protein that could potentially leverage the same binding mode as GPP/FPP. […]
across samples. Extremely low or missing values were floored to metabolite-specific limits of detection. For each dialysis replicate, log₂-transformed abundances were computed, and log₂(fold change) was calculated as the difference between protein and metabolite chambers. Injection replicates were averaged prior to fold-change calculation. Dialysis replicates with missing chamber measurements were excluded. Technical replicates were retained for outlier detection. Metabolites dominated by noise were removed based on comparison of a null model (intercept only) versus a protein-specific model and RMSE > 0.5 across dialysis replicates. Remaining metabolites were classified as “protein signal” and retained for analysis. For each metabolite–protein pair, up to one extreme outlier was removed using a z-score cutoff of 4. Dialysis replicates were then averaged to yield a consensus fold-change per protein–metabolite pair. […]

In the next assay the target is T1, FicD^WT (Homo sapiens, UniProt Q9BVA6).
T1 construct: soluble ER luminal domain (residues 105 to 458) of wild-type human FicD; 6xHis-Sumo (N, cleaved yes); made in house; host or cells: Rosetta(DE3) E. coli
T1 sequence (Q9BVA6 105-458): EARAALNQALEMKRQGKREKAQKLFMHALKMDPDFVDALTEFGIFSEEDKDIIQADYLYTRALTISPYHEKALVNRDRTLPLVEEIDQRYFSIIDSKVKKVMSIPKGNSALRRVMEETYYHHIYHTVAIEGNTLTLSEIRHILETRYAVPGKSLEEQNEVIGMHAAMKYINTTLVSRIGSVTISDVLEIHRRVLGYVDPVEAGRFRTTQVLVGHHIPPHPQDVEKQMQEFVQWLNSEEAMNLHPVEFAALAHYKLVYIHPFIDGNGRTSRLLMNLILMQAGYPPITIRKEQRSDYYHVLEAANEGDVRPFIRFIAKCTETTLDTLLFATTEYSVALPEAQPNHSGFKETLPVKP
Description: In vitro AMPylation of Δ26hBiP^T229A by FicD^WT (Western blot). In kind it is biochemical. To be noted: for inhibition of AMPylation of Δ26hBiP^T229A by FicD^WT: 100 μM metabolite, 500 μM ATP, 5 mM MgCl2; for concentration at which inhibition of AMPylation started: dose-response Western blot, FicD^WT. An excerpt: We next sought to assess the effects of FPP, GPP, and isoprenoid analogues on FicD activity. To accurately judge the effects of small molecules on FicD AMPylation activity, we used the ATPase defective BiP^T229A mutant as substrate ([22], [49], [50]). Loss of ATP hydrolysis by the BiP mutant ensures: 1. conformational homogeneity of the BiP protein substrate; 2. lack of BiP competition for the ATP substrate; and 3. no production of ADP, a competitive inhibitor for ATP. In addition, we deleted the first 25 amino acids of BiP for ease with its purification and solubility. […]
For AMPylation assays with FicD and BiP, Δ104FicDWT and Δ26hBiPT229A were combined at a ratio
of 1:80 in buffer containing 25mM HEPES pH 7.4, 100mM KCl, 5mM MgCl2, 500μM ATP, 1mM
DTT, and small molecule where indicated. Assays with Δ104FicDWT were incubated for 1 hour.
the amount of FicD as in reactions containing FicDWT and were incubated at 37C for 4.5 hours. […]

On to `CC(C)=CCC/C(C)=C/CC/C(C)=C/COP(=O)(O)OP(=O)(O)O` [FPP, farnesyl-pyrophosphate], for which the “change in GST melt curves or Tm” value in assay [1] is reported as “Neither GPP nor FPP elicited a change”. In addition, at FicD^WT, the “inhibition of AMPylation of Δ26hBiP^T229A by FicD^WT” value is given as “inhibited” and the “concentration at which inhibition of AMPylation started” value amounted to 5 µM. At FicD^WT (substrate exceeds FPP by two to three orders of magnitude), the “apparent EC50 of inhibition of AMPylation” value is “low micromolar range”.

As for `CC(C)=CCC/C(C)=C/COP(=O)(O)OP(=O)(O)O` [GPP, geranyl-pyrophosphate], in assay [1], the “change in GST melt curves or Tm” value is “Neither GPP nor FPP elicited a change”. Besides, on FicD^WT, the “inhibition of AMPylation of Δ26hBiP^T229A by FicD^WT” value is listed as “inhibited” and the “concentration at which inhibition of AMPylation started” value came to 20 µM.
